# Key:
# [1] = system: glucocorticosteroid receptor; conditions: ratio versus ciclesonide; cited from earlier work
# [2] = system: patients with asthma; assay: Double-blind, randomized, parallel group clinical study, ciclesonide vs budesonide once daily in the evening for 12 weeks; assay type: in vivo; conditions: for FEV1 / FVC / PEF / morning PEF: ex smokers, ITT, LSmeans
# Text: Another objective was to provide information on the safety and tolerability of ciclesonide.
# [3] = cited from earlier work
# [4] = system: asthma patients; conditions: ex-smokers, ciclesonide versus budesonide; cited from earlier work
# [5] = end of 12 weeks, CIC 200 μg or BUD 400 μg once daily in the evening
structure (smiles),measurement,setting,value
"C[C@]12C=CC(=O)C=C1CC[C@@H]1[C@@H]2[C@@H](O)C[C@@]2(C)[C@H]1C[C@H]1O[C@@H](C3CCCCC3)O[C@]12C(=O)CO (mixture of isomers) [desisobutyryl-ciclesonide, 16α,17-(22R,S)-cyclohexylmethylenedioxy-11β,21-dihydroxypregna-1,4-diene-3,20-dione]",affinity to the glucocorticosteroid receptor relative to ciclesonide,[1],approximately 100 times higher
"CC(C)C(=O)OCC(=O)[C@@]12O[C@H](C3CCCCC3)O[C@@H]1C[C@H]1[C@@H]3CCC4=CC(=O)C=C[C@]4(C)[C@H]3[C@@H](O)C[C@@]12C [Ciclesonide, [11β,16α(R)]-16,17-[(Cyclohexylmethylene)bis(oxy)]-11-hydroxy-21-(2-methyl-1-oxo-propoxy)pregna-1,4-diene-3,20-dione]","change in FEV1, subgroup analysis","[2]; (ex-)smokers subgroup, after 12 weeks of treatment",statistically significant increases
same,FEV1,[2]; [5],2.773 L
same,FVC,[2]; [5],3.604 L
same,PEF,[2]; [5],391 L/min
same,morning PEF,[2]; [5],416 L/min
same,FEV1,[2]; start of treatment,2.336 L
same,FVC,[2]; start of treatment,3.146 L
same,PEF,[2]; start of treatment,310 L/min
same,morning PEF,[2]; start of treatment,370 L/min
same,improvement in lung function compared to treatment with budesonide,[2]; smoking asthmatic patients,superior improvements in lung function
same,concentration of the drug in the lungs,[3]; in vivo,high
same,metabolism by liver oxidases,[3]; in vivo,very high
same,plasma half-life,[3]; in vivo,low
same,systemic activity,[3]; in vivo,low
same,absorption after oral administration,[3]; oral,only moderately absorbed
same,subgroup analysis of FEV1,[4],trend for superiority of ciclesonide over budesonide
CCCC1O[C@@H]2C[C@H]3[C@@H]4CCC5=CC(=O)C=C[C@]5(C)[C@H]4[C@@H](O)C[C@]3(C)[C@]2(C(=O)CO)O1 (stereo partly shown) [budesonide],FEV1,[2]; [5],2.602 L
same,FVC,[2]; [5],3.385 L
same,PEF,[2]; [5],357 L/min
same,morning PEF,[2]; [5],391 L/min
same,FEV1,[2]; start of treatment,2.339 L
same,FVC,[2]; start of treatment,3.146 L
same,PEF,[2]; start of treatment,310 L/min
same,morning PEF,[2]; start of treatment,370 L/min

# Reference: patent publication US20070134165A1 (Altana Pharma AG, priority 2004, published 2007)
